We go through four compounds from patent US20100298385A1, “PROTEIN KINASE INHIBITORS USEFUL FOR TREATMENT OF CANCERS” (priority 2007, published 2010).

Type in all cases: cell-based
Assay [1] concerns cancer cells. As to the kind of experiment: MTT test, positive controls on the different cells. The following applies: at 0.4, 0.8, 1.6, 3.2, and 6.4 μm/L. The procedure: (§1) Cell incubation: the cancer cells strains are incubated in RPMI 1640 with 10% FBS, grow along the wall at 37° C. under 5% CO2 incubator.
(§2) Sample solutions: First prepare material at 100 mM in DMSO, then diluted to DMSO 4.95% using 3% DMSO FBS solution.
(§3) MTT test: cancer cells are incubated at a density of 5×10^3 cells/well in 96 well cell Culture plate for 24 hours, then added different sample solutions for 72 hours. At the end of incubation, 5 mg/mL MTT 15 μL was added to each well and stayed for 4 hours, vacuumed the solution, added DMSO 150 μL, shaked for 10 minutes, tested at […] for the OD value in the spectrophotometer, and calculated the inhibition rate of cell proliferation.
(§4) Inhibition rate of cell proliferation=(control OD−sample OD)/control OD)*100%

Assay [2] has as its system A375s-2. As to the kind of experiment: MTT test, inhibition of cell proliferation. The following applies: A375-S2, 72 hours. The procedure:
as §1, §2, §3, §4
In general terms: Tetrazolium dyes change colour on reduction, which living cells bring about.

For assay [3], the system named is A431. As to the kind of experiment: MTT test, inhibition of cell proliferation. Particulars: Homo sapiens, A-431, 72 hours. The procedure:
as §1, §2, §3, §4

In assay [4] the test system is A549. The assay is described as follows: MTT test, inhibition of cell proliferation. The following applies: Homo sapiens, 72 hours. The procedure:
as §1, §2, §3, §4

In assay [5] the test system is BGC-823. The assay is described as follows: MTT test, inhibition of cell proliferation. The following applies: Homo sapiens, 72 hours. How it is done:
as §1, §2, §3, §4

In assay [6] the test system is Bel-7402. As to the kind of experiment: MTT test, inhibition of cell proliferation. The following applies: Homo sapiens, 72 hours. The procedure: as §1, §2, §3, §4
Assay [7] concerns HL-60. The assay is described as follows: MTT test, inhibition of cell proliferation. Particulars: Homo sapiens, 72 hours. The procedure: as §1, §2, §3, §4
For assay [8], the system named is Hela. The assay is described as follows: MTT test, inhibition of cell proliferation. Particulars: Homo sapiens, 72 hours. How it is done: as §1, §2, §3, §4
In assay [9] the test system is HepG-2. The assay is described as follows: MTT test, inhibition of cell proliferation. The following applies: Homo sapiens, HepG2, 72 hours. The procedure: as §1, §2, §3, §4
Assay [10] concerns K562. The assay is described as follows: MTT test, inhibition of cell proliferation. The following applies: Homo sapiens, 72 hours. The procedure: as §1, §2, §3, §4
For assay [11], the system named is KB. As to the kind of experiment: MTT test, inhibition of cell proliferation. The following applies: Homo sapiens, 72 h. The procedure: as §1, §2, §3, §4
In assay [12] the test system is L929. As to the kind of experiment: MTT test, inhibition of cell proliferation. The following applies: Mus musculus, 72 hours. The procedure:
as §1, §2, §3, §4

Assay [13] deals with MCF-7. The assay is described as follows: MTT test, inhibition of cell proliferation. Particulars: Homo sapiens, MCF7, 72 h. How it is done:
as §1, §2, §3, §4

The subject of assay [14] is U937. As to the kind of experiment: MTT test, inhibition of cell proliferation. The following applies: Homo sapiens, U-937, 72 hours. How it is done:
as §1, §2, §3, §4

Each structure is given as a SMILES string.

As for `O=P1(N(CCCl)CCCl)NCCCO1` (centres unmarked) [CYC, cyclophosphamide], the “inhibition for the different cells” value in assay [1] is recorded as “dose-dependent”.
Usually IC50 stands for the concentration that inhibits the measured activity by half. A higher IC50 goes with weaker potency. Take `CNC(=O)c1cc(Oc2ccc(NC(=O)Nc3nc(C)c(C(C)(C)C)s3)cc2)ccn1` [Compound A, 4-{4-[3-(5-tert-Butyl-4-methyl-thiazol-2-yl)-ureido]-phenoxy}-pyridine-2-carboxylic acid methylamide]: the IC50 in assay [2] is 31 to 50 µM; in [3], 11 to 30 µM; in assay [4] it was 31 to 50 µM; in assay [5] it was 11 to 30 µM; in assay [6] it was at most 10 µM; in assay [7] it was 11 to 30 µM. The IC50 was in the range of 31 to 50 µM in assay [8]; 11 to 30 µM in assay [9]; 31 to 50 µM in assay [10]; 11 to 30 µM in assay [11] (first listing (r12)); 11 to 30 µM in assay [11] (second listing (r16)); 31 to 50 µM in assay [12]. In addition, the IC50 in assay [13] (MCF-7, first listing (r2)) was at most 10 µM; in assay [13] (MCF-7, second listing (r6)), at most 10 µM; in assay [14], 11 to 30 µM.
As to `CNC(=O)c1cc(Oc2ccc(CC(=O)Nc3ccc(Cl)c(C(F)(F)F)c3)cc2)ccn1` [Compound C, 4-(4-[(4-chloro-3-trifluoromethylphenylaminocarbonyl)-methyl]phenoxy)pyridin-2-carboxylic acid methylamide], the IC50 is 11 to 30 µM in assay [2]; 11 to 30 µM in assay [3]; 31 to 50 µM in assay [4]; 11 to 30 µM in assay [5]; at most 10 µM in [6]; at most 10 µM in assay [7]. In addition, the IC50 in [8] fell in the range of 11 to 30 µM; in assay [9], 11 to 30 µM; in assay [10], 31 to 50 µM; in assay [11] (first listing (r12)) it was 31 to 50 µM; in [11] (second listing (r16)), 11 to 30 µM; in assay [12], 31 to 50 µM. Also, the IC50 in assay [13] (MCF-7, first listing (r2)) is 31 to 50 µM; in assay [13] (MCF-7, second listing (r6)), 11 to 30 µM; in assay [14], at most 10 µM.
With `CC(=O)O[C@H]1C(=O)[C@@]2(C)[C@H]([C@H](OC(=O)c3ccccc3)[C@]3(O)C[C@H](OC(=O)[C@H](O)[C@@H](NC(=O)c4ccccc4)c4ccccc4)C(C)=C1C3(C)C)[C@]1(OC(C)=O)CO[C@@H]1C[C@@H]2O` [Paclitaxel], the “inhibition for the different cells” value in [1] is “dose-dependent”.
